The structures appear in SMILES notation. Counter-ions that a name gives are not always drawn.

This note sets out measurements from patent EP1000059B1, “TRICYCLIC VASOPRESSIN AGONISTS” (Wyeth, priority 1997, dated 1999).

Assay [1] deals with Vasopressin V2. In words: Vasopressin V2 agonist effects of test compounds in normal conscious water-loaded rats. It is filed as in vivo. The note with it: oral dose of 10 mg/kg, urine collected for four hours, Sprague-Dawley (CD) rats; for Changes in Urinary Osmolality: osmolality changes expressed as percent of control; for Urine Volume (% decrease): percent decrease in urine volume vs. control, vehicle 20% DMSO in 2.5% preboiled corn starch. The text has this:
Vasopressin V2 Agonist Effects of Test Compounds in Normal Conscious Water-Loaded Rats:
Male or female normotensive Sprague-Dawley rats (Charles River Laboratories, Inc., Kingston, NY) of 350-500 g body weight were supplied with standard rodent diet (Purina Rodent Lab. Chow 5001) and water ad libitum. On the day of test, rats were placed individually into metabolic cages equipped with devices to separate the feces from the urine and containers for collection of urine. A test compound or a reference agent was given at an oral dose of 10 mg/kg in a volume of 10 ml/kg. The vehicle used was 20% dimethylsulfoxide (DMSO) in 2.5% preboiled corn starch. Thirty minutes after dosing the test compound, rats were gavaged with water at 30 ml/kg into the stomach using a feeding needle. During the test, rats were not provided with water or food. Urine was collected for four hours after dosing of the test compound. At the end of four hours, urine volume was measured. Urinary osmolality was determined using a Fiske One-Ten Osmometer (Fiske Associates, Norwood, MA, 02062) or an Advanced CRYOMATIC Osmometer, Model 3C2 (Advanced Instruments, Norwood, MA). Determinations of Na^+, K^+ and Cl^- ion were carried out using ion specific electrodes in a Beckman SYNCHRON EL-ISE Electrolyte System analyzer. The urinary osmolality should increase proportionally. In the screening test, two rats were used for each compound. If the difference in the urine volume of the two rats was greater than 50%, a third rat was used.

The test system of assay [2] is Vasopressin V2. The description is as above. In kind it is in vivo. The note with it: Sprague-Dawley (CD) rats; for Urine Volume (% decrease): percent decrease in urine volume vs. control, dose 1 mg/kg; for Changes in Urinary Osmolality: percent of control.

On to `Cc1ccnn1-c1ccc(C(=O)N2Cc3cccnc3Nc3ccccc32)c(Cl)c1` [Example 2, [2-Chloro-4-(5-methyl-pyrazol-1-yl)-phenyl] (5,11-dihydro-pyrido[2,3-b] [1,5]benzodiazepin-6-yl)-methanone], for which, in the assay on Vasopressin V2 [1], the “Changes in Urinary Osmolality” value is recorded as 288% of control and the “Urine Volume (% decrease)” value is listed as 61 % decrease.

Take `Cn1ccc(-c2ccc(C(=O)N3Cc4cccnc4Nc4ccccc43)c(Cl)c2)n1` [Example 18, [2-Chloro-4-(1-methyl-1-H-pyrazol-3-yl)-phenyl]-(5,11-dihydro-pyrido[2,3-b][1,5]benzodiazepin-10-yl)-methanone]: in the assay on Vasopressin V2 [1], the “Changes in Urinary Osmolality” value was 234% of control and the “Urine Volume (% decrease)” value was determined as 76 % decrease.

With `Cc1ccn(-c2ccc(C(=O)N3Cc4cccnc4Nc4ccccc43)c(C(F)(F)F)c2)n1` [Example 14, (5,11-Dihydro-pyrido[2,3-b][1,5]benzodiazepin-6-yl)-[4-(3-methyl-pyrazol-1-yl)-2-trifluoromethyl-phenyl]-methanone 1:1 salt with methanesulfonic acid solvate with 0.15 hexane], the “Urine Volume (% decrease)” value in the assay with Vasopressin V2 [2] was 83 (1 mg/kg) % decrease. Moreover, the “Changes in Urinary Osmolality” value in the assay with Vasopressin V2 [2] (same row's urine volume cell prints 1 mg/kg (footnote says 10 mg/kg)) is on record as 321% of control.

As to `O=C(c1ccc(-n2ccc(C(F)(F)F)n2)cc1Cl)N1Cc2cccnc2Nc2ccccc21` [Example 17, [2-Chloro-4-(3-trifluoromethyl-pyrazol-1-yl)-phenyl]-(5,11-dihydro-pyrido[2,3-b][1,5]benzodiazepin-6-yl)-methanone], in the assay on Vasopressin V2 [1], the “Changes in Urinary Osmolality” value was 262% of control and the “Urine Volume (% decrease)” value was found to be 72 % decrease.

Regarding `Cc1ccn(-c2ccc(C(=O)N3Cc4cccnc4Nc4ccccc43)c(C(F)(F)F)c2)n1` [Example 15, (5,11-Dihydro-pyrido[2,3-b][1,5]benzodiazepin-6-yl)-[4-(3-methyl-pyrazol-1-yl)-2-trifluoromethyl-phenyl]-methanone 1:1 salt with hydrochloric acid 0.10 dichloromethane solvate], the “Urine Volume (% decrease)” value in the assay with Vasopressin V2 [2] (starch only) is reported as 98 (1 mg/kg) starch only % decrease. For the same molecule, in the assay on Vasopressin V2 [2], the “Changes in Urinary Osmolality” value is reported as 1363% of control.

For `Cc1ccnn1-c1ccc(C(=O)N2Cc3cccnc3Nc3ccccc32)c(C(F)(F)F)c1` [Example 6, (5,11-Dihydro-pyrido[2,3-b][1,5]benzodiazepin-10-yl)-[4-(5-methyl-pyrazol-1-yl)-2-trifluoromethyl-phenyl]-methanone solvate with 0.09 dichloromethane and 0.13 ethyl acetate], in the assay with Vasopressin V2 [1], the “Changes in Urinary Osmolality” value is given as 103% of control and the “Urine Volume (% decrease)” value is 25 % decrease.

In the case of `Cc1ccn(-c2cc(F)ccc2C(=O)N2Cc3cccnc3Nc3ccccc32)n1` [Example 10, (5,11-Dihydro-pyrido[2,3-b][1,5]benzodiazepin-10-yl)-[4-fluoro-2-(3-methyl-pyrazol-1-yl)-phenyl]-methanone solvate with 0.20 ethanol], in the assay with Vasopressin V2 [1], the “Changes in Urinary Osmolality” value was 276% of control and the “Urine Volume (% decrease)” value is recorded as 63 % decrease.

On to `O=C(c1ccc(-n2ccc(C(F)(F)F)n2)cc1C(F)(F)F)N1Cc2cccnc2Nc2ccccc21` [Example 7, (5,11-Dihydro-pyrido[2,3-b][1,5]benzodiazepin-6-yl)-[2-trifluoromethyl-4-(3-trifluoromethyl-pyrazol-1-yl)-phenyl]-methanone], for which, in the assay with Vasopressin V2 [1], the “Changes in Urinary Osmolality” value is on record as 283% of control and the “Urine Volume (% decrease)” value is reported as 69 % decrease.

In the case of `Cc1ccn(-c2ccc(C(=O)N3Cc4cccnc4Oc4ccccc43)c(Cl)c2)n1` [Example 16, [2-Chloro-4-(3-methyl-pyrazol-1-yl)-phenyl]-(11H-5-oxa-4,10-diazadibenzo[a,d]cyclohepten-10-yl)-methanone], in the assay with Vasopressin V2 [1], the “Changes in Urinary Osmolality” value was 142% of control and the “Urine Volume (% decrease)” value is 41 % decrease.

Take `CN1c2ccccc2N(C(=O)c2ccc(-c3ccn(C)n3)cc2Cl)Cc2cccnc21` [Example 20, [2-Chloro-4-(1-methyl-1H-pyrazol-3-yl)-phenyl]-(5-methyl-5,11-dihydro-pyrido[2,3-b][1,5]benzodiazepin-10-yl)-methanone]: in the assay on Vasopressin V2 [1], the “Changes in Urinary Osmolality” value is 89% of control and the “Urine Volume (% decrease)” value came out at 10 % decrease.

On to `Cc1ccn(-c2ccc(C(=O)N3Cc4cccnc4Nc4ccccc43)c(Br)c2)n1` [Example 3, [2-Bromo-4-(3-methyl-pyrazol-1-yl)-phenyl]-(5,11-dihydro-pyrido[2,3-b] [1,5]benzodiazepin-6-yl)-methanone], for which, in the assay on Vasopressin V2 [1], the “Changes in Urinary Osmolality” value is on record as 346% of control and the “Urine Volume (% decrease)” value stood at 85 % decrease.

Regarding `Cc1ccn(-c2ccc(C(=O)N3Cc4cccnc4Nc4ccccc43)c(C(F)(F)F)c2)n1` [Example 4, (5,11-Dihydro-pyrido[2,3-b][1,5]benzodiazepin-6-yl)-[4-(3-methyl-pyrazol-1-yl)-2-trifluoromethyl-phenyl]-methanone], in the assay on Vasopressin V2 [1], the “Changes in Urinary Osmolality” value is 339% of control and the “Urine Volume (% decrease)” value is listed as 87 % decrease.

Turning to `Cc1ccn(-c2ccc(C(=O)N3Cc4cccnc4N(C)c4ccccc43)c(Cl)c2)n1` [Example 11, [2-Chloro-4-(3-methyl-pyrazol-1-yl)-phenyl]-(5-methyl-5,11-dihydro-pyrido[2,3-b][1,5]benzodiazepin-10-yl)-methanone], in the assay on Vasopressin V2 [1], the “Changes in Urinary Osmolality” value was 375% of control and the “Urine Volume (% decrease)” value worked out at 71 % decrease.

`Cc1ccn(-c2ccc(C(=O)N3Cc4cccnc4Nc4ccccc43)c(F)c2)n1` [Example 9, (5,11-Dihydro-pyrido[2,3-b][1,5]benzodiazepin-10-yl)-[2-fluoro-4-(3-methyl-pyrazol-1-yl)-phenyl]-methanone 0.19 hydrate]: in the assay on Vasopressin V2 [1], the “Changes in Urinary Osmolality” value is 372% of control and the “Urine Volume (% decrease)” value was 59 % decrease.

Regarding `Cc1ccn(-c2ccc(C(=O)N3Cc4cccnc4Nc4ccccc43)c(Cl)c2)n1` [Example 1, [2-Chloro-4-(3-methyl-pyrazol-1-yl)-phenyl]-(5,11-dihydro-pyrido [2,3-b] [1,5]benzodiazepin-6-yl)-methanone], in the assay with Vasopressin V2 [1], the “Changes in Urinary Osmolality” value is 272% of control and the “Urine Volume (% decrease)” value was 80 % decrease.

Consider `Cc1nc(-c2ccc(C(=O)N3Cc4cccnc4Nc4ccccc43)c(Cl)c2)n[nH]1` [Example 24, [2-Chloro-4-(5-methyl-1H-[1,2,4]triazol-3-yl)-phenyl]-(5,11-dihydro-pyrido[2,3-b][1,5]benzodiazepin-6-yl)-methanone], for which, in the assay with Vasopressin V2 [1], the “Changes in Urinary Osmolality” value is recorded as 615% of control and the “Urine Volume (% decrease)” value was determined as 86 % decrease.

Take `Cc1ccn(-c2ccc(C)c(C(=O)N3Cc4cccnc4Nc4ccccc43)c2)n1` [Example 12, (5,11-Dihydro-pyrido[2,3-b][1,5]benzodiazepin-10-yl)-[2-methyl-5-(3-methyl-pyrazol-1-yl)-phenyl]-methanone]: in the assay with Vasopressin V2 [1], the “Changes in Urinary Osmolality” value is on record as 101% of control and the “Urine Volume (% decrease)” value is -2 % decrease.

Consider `CC(C)(C)c1ccn(-c2ccc(C(=O)N3Cc4cccnc4Nc4ccccc43)c(C(F)(F)F)c2)n1` [Example 13, [4-(3-tert-Butyl-pyrazol-1-yl)-2-trifluoromethyl-phenyl]-(5,11-dihydro-pyrido[2,3-b][1,5]benzodiazepin-10-yl)-methanone], for which, in the assay on Vasopressin V2 [1], the “Changes in Urinary Osmolality” value was 106% of control and the “Urine Volume (% decrease)” value is given as 6 % decrease.

With `Cc1ccn(-c2ccc(C(=O)N3Cc4cccnc4N(C)c4ccccc43)c(C(F)(F)F)c2)n1` [Example 8, (5-Methyl-5,11-dihydro-pyrido[2,3-b][1,5]benzodiazepin-10-yl)-[4-(3-methyl-pyrazol-1-yl)-2-trifluoromethyl-phenyl]methanone], in the assay with Vasopressin V2 [1], the “Changes in Urinary Osmolality” value is recorded as 298% of control and the “Urine Volume (% decrease)” value is 72 % decrease.
